Key:
[1] = molecular target: T1, CRBN and Helios (IKZF2) (Homo sapiens, UniProt Q96SW2+Q9UKS7); test: TR-FRET dimerization assay (CRBN-IKZF2 ternary complex formation); assay type: binding; conditions: n=1
T1 construct: His (N); Strep (N)
Outline: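 Compound-induced IKZF2 recruitment to CRBN was read as the 520/490 nm TR-FRET ratio after 15 min at rt. The mix held biotinylated IKZF2, BODIPY-labeled CRBN bound to DDB1 lacking the BPB propeller, tracer Tb-streptavidin and compound titrations; n=1, from ≥3 technical replicates per well.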

[2] = test system: IKZF2; test: Cellular degradation assay, eGFP-IKZF2Δ fusion with mCherry reporter in Flp-In 293 cells; assay type: cell-based; conditions: 5 h incubation, n=1
Outline: (§1)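 DC50,5 h derived by variable-slope nonlinear fit of the per-well ratio of GFP-positive to mCherry-positive cells, imaged after 5 h compound exposure at 0.5% DMSO.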

[3] = molecular target: T2, IKZF1 (Homo sapiens, UniProt Q13422); test: Cellular degradation assay, eGFP-IKZF1Δ fusion with mCherry reporter in Flp-In 293 cells; assay type: cell-based; conditions: 5 h incubation, n=1
T2 construct: expressed in transfected cells; host or cells: Flp-In 293
T2 sequence (Q13422 83-213 isoform Q13422-7 limits assumed): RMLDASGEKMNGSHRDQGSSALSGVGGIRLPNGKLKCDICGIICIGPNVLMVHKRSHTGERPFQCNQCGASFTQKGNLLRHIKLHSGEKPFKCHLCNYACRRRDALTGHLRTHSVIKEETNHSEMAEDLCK
T2 sequence (Q96SW2 whole entry partner, the tested form may be a part): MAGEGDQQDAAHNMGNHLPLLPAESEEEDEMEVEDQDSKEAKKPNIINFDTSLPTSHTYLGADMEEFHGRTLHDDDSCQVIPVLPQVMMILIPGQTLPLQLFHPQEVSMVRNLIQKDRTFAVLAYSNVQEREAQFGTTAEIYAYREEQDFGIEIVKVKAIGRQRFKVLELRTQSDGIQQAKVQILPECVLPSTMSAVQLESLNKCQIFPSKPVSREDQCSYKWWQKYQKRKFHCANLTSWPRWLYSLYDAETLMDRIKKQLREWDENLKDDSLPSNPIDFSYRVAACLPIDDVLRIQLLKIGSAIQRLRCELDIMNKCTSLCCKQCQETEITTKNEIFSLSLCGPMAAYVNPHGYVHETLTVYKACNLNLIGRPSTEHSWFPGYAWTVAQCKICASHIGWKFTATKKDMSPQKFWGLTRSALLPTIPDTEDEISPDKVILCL
T2 sequence (Q16531 2-1140 partner limits assumed): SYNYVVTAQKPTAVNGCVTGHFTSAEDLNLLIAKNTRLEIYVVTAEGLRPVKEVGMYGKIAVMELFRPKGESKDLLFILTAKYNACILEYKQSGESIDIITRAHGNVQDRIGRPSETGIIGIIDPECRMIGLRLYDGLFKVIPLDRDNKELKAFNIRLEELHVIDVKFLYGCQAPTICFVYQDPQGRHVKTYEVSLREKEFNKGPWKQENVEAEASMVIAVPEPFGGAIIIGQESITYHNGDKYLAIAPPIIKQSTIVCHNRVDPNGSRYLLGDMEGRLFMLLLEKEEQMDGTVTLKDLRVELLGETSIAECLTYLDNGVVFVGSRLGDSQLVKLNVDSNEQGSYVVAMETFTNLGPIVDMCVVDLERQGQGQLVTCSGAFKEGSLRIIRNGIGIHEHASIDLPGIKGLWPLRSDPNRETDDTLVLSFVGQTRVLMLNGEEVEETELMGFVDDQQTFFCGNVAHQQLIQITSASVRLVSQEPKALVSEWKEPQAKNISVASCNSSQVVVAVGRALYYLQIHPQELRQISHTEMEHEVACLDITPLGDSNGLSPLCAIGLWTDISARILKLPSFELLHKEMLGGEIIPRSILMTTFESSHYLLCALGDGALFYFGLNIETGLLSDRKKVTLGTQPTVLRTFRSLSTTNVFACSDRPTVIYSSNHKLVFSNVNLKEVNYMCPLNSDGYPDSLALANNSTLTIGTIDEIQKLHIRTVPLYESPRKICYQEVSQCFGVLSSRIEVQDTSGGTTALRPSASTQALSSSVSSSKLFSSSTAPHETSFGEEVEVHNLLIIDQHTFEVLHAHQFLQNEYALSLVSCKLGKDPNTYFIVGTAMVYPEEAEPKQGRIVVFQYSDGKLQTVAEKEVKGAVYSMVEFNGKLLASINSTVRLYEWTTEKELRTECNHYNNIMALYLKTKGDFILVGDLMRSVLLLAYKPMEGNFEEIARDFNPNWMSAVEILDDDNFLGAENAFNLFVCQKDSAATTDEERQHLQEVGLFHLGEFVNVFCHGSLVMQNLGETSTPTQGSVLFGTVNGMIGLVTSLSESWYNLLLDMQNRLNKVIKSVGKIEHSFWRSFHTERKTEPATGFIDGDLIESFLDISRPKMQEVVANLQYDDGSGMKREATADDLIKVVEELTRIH
Outline: as §1

[4] = molecular target: T3, SALL4 ZNF1-2 (Homo sapiens, UniProt Q96SW2+Q9UJQ4); test: Cellular degradation assay, eGFP-SALL4 ZnF1-2 fusion with mCherry reporter in Flp-In 293 cells; assay type: cell-based; conditions: 5 h incubation, n=1
T3 construct: IKZF1Δ, IKZF2Δ, GSPT1 and SALL4 ZnF1-2 were subcloned; expressed in transfected cells; host or cells: Flp-In 293
T3 sequence (Q9UJQ4 378-438 limits assumed): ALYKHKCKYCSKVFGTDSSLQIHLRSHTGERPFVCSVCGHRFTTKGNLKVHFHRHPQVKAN
T3 sequence (Q96SW2 whole entry, the tested form may be a part): as the sequence (Q96SW2 whole entry partner, the tested form may be a part) above
T3 sequence (Q16531 whole entry partner, the tested form may be a part): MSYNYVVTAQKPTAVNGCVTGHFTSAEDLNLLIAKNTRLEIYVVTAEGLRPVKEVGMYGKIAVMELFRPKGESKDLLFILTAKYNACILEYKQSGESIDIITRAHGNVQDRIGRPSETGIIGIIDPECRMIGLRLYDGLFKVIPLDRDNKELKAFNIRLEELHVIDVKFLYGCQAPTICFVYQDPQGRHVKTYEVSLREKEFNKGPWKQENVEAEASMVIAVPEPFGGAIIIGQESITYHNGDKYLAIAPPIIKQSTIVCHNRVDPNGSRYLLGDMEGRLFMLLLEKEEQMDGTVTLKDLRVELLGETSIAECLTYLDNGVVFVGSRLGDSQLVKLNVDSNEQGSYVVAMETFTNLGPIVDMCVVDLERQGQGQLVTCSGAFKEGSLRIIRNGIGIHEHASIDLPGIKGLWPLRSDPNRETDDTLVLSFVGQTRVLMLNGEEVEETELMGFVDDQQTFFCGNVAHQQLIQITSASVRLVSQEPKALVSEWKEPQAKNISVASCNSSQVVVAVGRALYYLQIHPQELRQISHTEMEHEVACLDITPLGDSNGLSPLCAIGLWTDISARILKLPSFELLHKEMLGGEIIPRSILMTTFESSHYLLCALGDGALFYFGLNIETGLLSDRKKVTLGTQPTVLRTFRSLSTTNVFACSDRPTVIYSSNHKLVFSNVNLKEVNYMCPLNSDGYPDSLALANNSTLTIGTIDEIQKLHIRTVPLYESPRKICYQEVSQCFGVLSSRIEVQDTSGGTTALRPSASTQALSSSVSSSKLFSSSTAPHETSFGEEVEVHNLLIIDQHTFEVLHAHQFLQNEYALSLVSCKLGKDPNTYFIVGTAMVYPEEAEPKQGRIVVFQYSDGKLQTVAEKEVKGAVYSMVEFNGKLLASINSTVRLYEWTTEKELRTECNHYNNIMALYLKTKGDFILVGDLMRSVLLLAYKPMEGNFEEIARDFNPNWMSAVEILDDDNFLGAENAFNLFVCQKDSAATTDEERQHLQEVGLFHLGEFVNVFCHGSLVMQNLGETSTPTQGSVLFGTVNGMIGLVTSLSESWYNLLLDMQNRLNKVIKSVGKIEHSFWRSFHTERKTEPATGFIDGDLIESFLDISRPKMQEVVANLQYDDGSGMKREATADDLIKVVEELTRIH
Description: IKZF1Δ, IKZF2Δ, GSPT1 and SALL4 ZnF1-2 were subcloned into mammalian pcDNA5/FRT Vector (Ampicillin and Hygromycin B resistant) modified to contain MCS-eGFP-P2A-mCherry. Stable cell lines expressing eGFP-protein fusion and mCherry reporter were generated using Flp-In™ 293 system. Plasmid (0.3 μg) and pOG44 (4.7 μg) DNA were preincubated in 100 μL of Opti-MEM® I (Gibco®, Life Technologies™) media containing 0.05 mg/mL Lipofectamine® 2000 (Invitrogen™) for 20 min and added to Flp-In™ 293 cells containing 1.9 ml of DMEM media (Gibco®, Life Technologies™) per well in a 6-well plate format (Falcon, 353046). Cells were propagated after 48 h and transferred into a 10 cm^2 plate (Corning, 430165) in DMEM media containing 50 μg/mL of Hygromycin B (REF 10687010, Invitrogen™) as a selection marker. Following 2-3 passage cycle, FACS (FACSAria™ II, BD) was used to enrich for cells expressing eGFP and mCherry. Cells stably expressing the IKZF1Δ, IKZF2Δ, GSPT1 or SALL4 Znf1-2 GFP fusions with mCherry reporter were seeded at 30-50% confluency in 384-well plates with 50 μL FluoroBrite™ DMEM media (Thermo Fisher Scientific, A18967) containing 10% FBS per well a day before compound treatment. Compound titrations were dispensed using a D300e Digital Dispenser (HP), normalized to 0.5% DMSO, and incubated with cells for 5 hours. The assay plate was imaged immediately using an Acumen® High Content Imager (TTP Labtech) with 488 nm and 561 nm lasers in […] grid per well format.
The resulting images were analyzed using CellProfiler™. A series of image analysis steps (‘image analysis pipeline’) was constructed. First, the red and green channels were aligned and cropped to target the middle of each well (to avoid analysis of heavily clumped cells at the edges), and a background illumination function was calculated for both red and green channels of each well individually and subtracted to correct for illumination variations across the 384-well plate from various sources of error. An additional step was then applied to the green channel to suppress the analysis of large auto fluorescent artifacts and enhance the analysis of cell specific fluorescence by way of selecting for objects under a given size, 30 A.U., and with a given shape, speckles. mCherry-positive cells were then identified in the red channel filtering for objects between 8-60 pixels in diameter and using intensity to distinguish between clumped objects. The green channel was then segmented into GFP positive and negative areas and objects were labeled as GFP positive if at least 40% of it overlapped with a GFP positive area. The fraction of GFP-positive cells/mCherry-positive cells in each well was then calculated, and the green and red images were rescaled for visualization.

[5] = molecular target: GSPT1 (Homo sapiens, UniProt P15170+Q96SW2); test: Cellular degradation assay, eGFP-GSPT1 fusion with mCherry reporter in Flp-In 293 cells; assay type: cell-based; design: expressed in transfected cells; host or cells: Flp-In 293; conditions: 5 h incubation, n=1
GSPT1, sequence (P15170 whole entry, the tested form may be a part): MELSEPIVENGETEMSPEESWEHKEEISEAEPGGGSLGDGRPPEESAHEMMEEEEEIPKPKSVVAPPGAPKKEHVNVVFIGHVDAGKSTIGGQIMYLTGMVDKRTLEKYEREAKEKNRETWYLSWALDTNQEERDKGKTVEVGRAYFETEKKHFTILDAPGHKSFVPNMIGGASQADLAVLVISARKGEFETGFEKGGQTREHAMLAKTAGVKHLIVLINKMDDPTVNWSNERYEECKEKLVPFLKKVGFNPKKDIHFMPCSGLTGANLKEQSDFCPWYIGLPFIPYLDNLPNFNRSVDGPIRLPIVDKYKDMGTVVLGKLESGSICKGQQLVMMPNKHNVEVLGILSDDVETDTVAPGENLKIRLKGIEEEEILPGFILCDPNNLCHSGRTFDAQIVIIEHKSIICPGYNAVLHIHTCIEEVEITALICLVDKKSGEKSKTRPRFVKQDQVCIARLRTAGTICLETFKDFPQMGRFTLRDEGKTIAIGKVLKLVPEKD
GSPT1, sequence (Q96SW2 whole entry, the tested form may be a part): as the sequence (Q96SW2 whole entry partner, the tested form may be a part) above
GSPT1, sequence (Q16531 whole entry partner, the tested form may be a part): as the sequence (Q16531 whole entry partner, the tested form may be a part) above
Outline: as §1

[6] = compound concentration 6.6667E−05
[7] = compound concentration 6.6667E−06
[8] = compound concentration 6.6667E−07 (667 nM)
[9] = compound concentration 2.00E−05
[10] = compound concentration 2.00E−06
[11] = compound concentration 2.00E−07

T1 sequence (Q96SW2 whole entry): as the sequence (Q96SW2 whole entry partner, the tested form may be a part) above
T1 sequence (Q9UKS7 whole entry): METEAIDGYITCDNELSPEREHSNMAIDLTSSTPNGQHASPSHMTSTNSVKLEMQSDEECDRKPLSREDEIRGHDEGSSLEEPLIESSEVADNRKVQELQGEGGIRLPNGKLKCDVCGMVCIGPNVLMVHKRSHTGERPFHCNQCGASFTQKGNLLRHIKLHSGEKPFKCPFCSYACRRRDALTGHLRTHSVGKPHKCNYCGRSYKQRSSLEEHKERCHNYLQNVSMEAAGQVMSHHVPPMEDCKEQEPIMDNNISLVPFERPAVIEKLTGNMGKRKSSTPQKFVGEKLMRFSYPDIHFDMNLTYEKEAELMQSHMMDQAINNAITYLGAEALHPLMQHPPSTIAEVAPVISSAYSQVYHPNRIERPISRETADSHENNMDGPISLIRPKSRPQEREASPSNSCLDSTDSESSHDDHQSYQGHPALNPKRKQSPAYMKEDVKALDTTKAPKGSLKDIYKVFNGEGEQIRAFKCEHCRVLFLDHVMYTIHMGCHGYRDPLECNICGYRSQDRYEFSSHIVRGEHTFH

SMILES	TR-FRET-IKZF2 (Normalized to CC-885) [1, 6]	TR-FRET-IKZF2 (Normalized to CC-885) [1, 7]	TR-FRET-IKZF2 (Normalized to CC-885) [1, 8]	IKZF2 GFP/RFP Relative Abundance [2, 9]	IKZF2 GFP/RFP Relative Abundance [2, 10]	IKZF2 GFP/RFP Relative Abundance [2, 11]	IKZF1 GFP/RFP Relative Abundance [3, 9]	IKZF1 GFP/RFP Relative Abundance [3, 10]	IKZF1 GFP/RFP Relative Abundance [3, 11]	SALL4 ZNF1-2 GFP/RFP Relative Abundance [4, 9]	SALL4 ZNF1-2 GFP/RFP Relative Abundance [4, 10]	SALL4 ZNF1-2 GFP/RFP Relative Abundance [4, 11]	GSPT1 GFP/RFP Relative Abundance [5, 9]	GSPT1 GFP/RFP Relative Abundance [5, 10]	GSPT1 GFP/RFP Relative Abundance [5, 11]
COC(=O)CNC1=CC(=O)N(C2CCC(=O)NC2=O)C1=O (stereo not drawn) [Compound 13, Methyl (1-(2,6-dioxopiperidin-3-yl)-2,5-dioxo-2,5-dihydro-1H-pyrrol-3-yl)glycinate]	0.032	0.028	0.019	1.040	1.005	1.070	1.069	1.076	1.058	0.962	1.017	1.017	1.172	1.162	1.004
COC(=O)c1n[nH]c(NC2=CC(=O)N(C3CCC(=O)NC3=O)C2=O)n1 (stereo not drawn) [Compound 20, Methyl 5-((1-(2,6-dioxopiperidin-3-yl)-2,5-dioxo-2,5-dihydro-1H-pyrrol-3-yl)amino)-1H-1,2,4-triazole-3-carboxylate]	0.050	0.017	0.014	0.952	0.987	1.025	0.721	0.895	0.342	0.894	0.908	0.892	0.901	1.036	1.069
O=C(O)CCCNC1=CC(=O)N(C2CCC(=O)NC2=O)C1=O (stereo not drawn) [Compound 21, 4-((1-(2,6-dioxopiperidin-3-yl)-2,5-dioxo-2,5-dihydro-1H-pyrrol-3-yl)amino)butanoic acid]	0.047	0.019	0.012	0.996	0.951	0.946	0.842	0.975	0.998	0.937	0.921	0.957	0.693	0.938	0.909
O=C1CCC(N2C(=O)C=C(Nc3cccc(-c4nnn[nH]4)c3)C2=O)C(=O)N1 (stereo not drawn) [Compound 23, 3-(3-((3-(1H-tetrazol-5-yl)phenyl)amino)-2,5-dioxo-2,5-dihydro-1H-pyrrol-1-yl)piperidine-2,6-dione]	0.326	0.259	0.196	1.013	1.016	1.015	0.866	1.044	0.756	0.922	0.979	0.981	0.976	0.936	0.953
O=C(O)CCCCNC1=CC(=O)N(C2CCC(=O)NC2=O)C1=O (stereo not drawn) [Compound 22, 5-((1-(2,6-dioxopiperidin-3-yl)-2,5-dioxo-2,5-dihydro-1H-pyrrol-3-yl)amino)pentanoic acid]	0.055	0.032	0.018	1.001	0.982	0.935	0.984	1.028	0.939	0.953	0.962	1.044	1.058	0.883	0.745
Cc1ccc(NC(=O)NCCCNC2=CC(=O)N(C3CCC(=O)NC3=O)C2=O)cc1Cl (stereo not drawn) [Compound 47, 1-(3-chloro-4-methylphenyl)-3-(3-((1-(2,6-dioxopiperidin-3-yl)-2,5-dioxo-2,5-dihydro-1H-pyrrol-3-yl)amino)propyl)urea]	0.288	0.230	0.191	1.019	1.051	0.995	0.312	0.298	0.326	1.060	1.039	1.010	0.034	0.041	0.036
Cc1cc(NC2=CC(=O)N(C3CCC(=O)NC3=O)C2=O)ccc1Cl (stereo not drawn) [Compound 4, 3-(3-((4-chloro-3-methylphenyl)amino)-2,5-dioxo-2,5-dihydro-1H-pyrrol-1-yl)piperidine-2,6-dione]	0.485	0.411	0.270	0.925	1.028	1.002	0.314	0.433	0.550	0.862	0.850	0.903	0.922	0.904	0.750
Cc1ccc(NC2=CC(=O)N(C3CCC(=O)NC3=O)C2=O)cc1C (stereo not drawn) [Compound 24, 3-(3-((3,4-dimethylphenyl)amino)-2,5-dioxo-2,5-dihydro-1H-pyrrol-1-yl)piperidine-2,6-dione]	0.391	0.344	0.282	0.959	0.954	1.038	0.236	0.342	0.369	0.937	0.941	0.942	1.153	1.221	1.218

From patent publication US12227488B2, “Small molecule degraders of Helios and methods of use” (DANA-FARBER CANCER INSTITUTE, INC., priority 2018, dated 2025)
